The source of these data is patent publication US11986471B2, “Compounds and methods of use” (Tango Therapeutics, Inc., priority 2018, dated 2024).

Assay [1] has as its target T1, PRMT5 (Homo sapiens, UniProt O14744).
T1 construct: purchased Viva (custom protein)
In words: PRMT5 IC50 assay with no cofactor. Format: biochemical. An outline of the steps:
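Results given as IC50 (μM), from which Ki follows by dividing by 1.5 in the SAM condition or by 13.5 in the MTA condition. The ratio of SAM Ki to MTA Ki indicates MTA-cooperative preference.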

The target of assay [2] is T1, PRMT5. In words: PRMT5 IC50 assay in the presence of SAM as cofactor. Format: biochemical. An outline of the steps:
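Three cofactor conditions are run: SAM-bound, MTA-bound and cofactor-free enzyme. IC50 is read from each; for the SAM and MTA arms it is divided by 1.5 and 13.5 respectively to give Ki.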

Assay [3] has as its target T1, PRMT5. The assay is described as follows: PRMT5 IC50 assay in the presence of MTA as cofactor. Conditions: for IC50: PRMT5, MTA as cofactor. Format: biochemical. Summed up:
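For the SAM-containing format, dividing IC50 by 1.5 yields Ki; for the MTA-containing format the divisor is 13.5. A third format without cofactor gives IC50 alone.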

Assay [4] concerns HAP1 MTAP-deleted. The assay is described as follows: SDMA in-cell western assay, HAP1 MTAP-deleted cell line. It is filed as cell-based. Conditions: for IC50: Homo sapiens, HAP1 MTAP-deleted cell line; for MTAP Intact/Deleted Ratio: IC50 ratio HAP1 MTAP-intact / HAP1 MTAP-deleted. An outline of the steps: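 Readout is cellular SDMA signal by in-cell western, with IC50 values derived from it. The cells are MTAP-null HAP1, matched to an isogenic MTAP-intact HAP1 line.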

Assay [5] relates to HAP1 MTAP-intact. The assay is described as follows: SDMA in-cell western assay, HAP1 MTAP-intact cell line. It is filed as cell-based. Conditions: Homo sapiens. An outline of the steps:
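IC50 values come from SDMA in-cell western staining of HAP1 cells. The MTAP-intact line carries endogenous MTAP, while its MTAP-deleted counterpart lacks MTAP entirely. A selectivity ratio of at least 3 fold marks a compound as MTAP-selective.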

Setting [6] is: ratio between the Ki in the presence of SAM and the Ki in the presence of MTA.
The mark [7] stands for this setting: ratio between Ki in the presence of SAM and Ki in the presence of MTA.

As usually defined, the IC50 is the concentration that gives 50% inhibition.

T1 sequence (O14744 whole entry): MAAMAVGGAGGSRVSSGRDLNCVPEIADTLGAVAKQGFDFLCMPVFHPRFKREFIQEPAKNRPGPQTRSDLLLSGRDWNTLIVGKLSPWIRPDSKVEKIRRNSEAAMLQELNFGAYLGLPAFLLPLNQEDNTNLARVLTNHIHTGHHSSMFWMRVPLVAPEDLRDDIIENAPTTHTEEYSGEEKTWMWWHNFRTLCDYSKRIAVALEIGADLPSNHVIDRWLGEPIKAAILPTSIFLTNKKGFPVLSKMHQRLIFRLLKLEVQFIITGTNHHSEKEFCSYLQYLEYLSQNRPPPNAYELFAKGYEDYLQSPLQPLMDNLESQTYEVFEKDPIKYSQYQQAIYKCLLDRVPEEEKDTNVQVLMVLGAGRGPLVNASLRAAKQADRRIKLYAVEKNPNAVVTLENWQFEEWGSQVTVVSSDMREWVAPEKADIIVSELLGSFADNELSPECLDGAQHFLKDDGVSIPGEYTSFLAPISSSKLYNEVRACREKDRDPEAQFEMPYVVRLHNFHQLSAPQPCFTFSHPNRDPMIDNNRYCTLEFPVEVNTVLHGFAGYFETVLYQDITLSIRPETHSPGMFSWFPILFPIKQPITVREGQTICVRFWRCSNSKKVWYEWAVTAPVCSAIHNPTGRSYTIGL
T1 sequence (Q9BQA1 whole entry partner): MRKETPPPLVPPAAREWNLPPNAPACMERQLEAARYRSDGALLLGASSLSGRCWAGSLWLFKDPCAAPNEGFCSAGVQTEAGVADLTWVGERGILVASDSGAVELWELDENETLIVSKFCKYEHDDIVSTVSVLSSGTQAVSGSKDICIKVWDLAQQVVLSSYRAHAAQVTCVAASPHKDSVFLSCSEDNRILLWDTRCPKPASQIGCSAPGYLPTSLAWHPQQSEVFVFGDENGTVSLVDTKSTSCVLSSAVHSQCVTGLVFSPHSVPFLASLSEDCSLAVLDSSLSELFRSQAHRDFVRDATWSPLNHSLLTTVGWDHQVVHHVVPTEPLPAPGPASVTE

With `Cc1c(OCc2cnco2)ccc2c1CCN(C[C@@H](O)CNC(=O)c1ccnc(NC3CC4CCCC43)c1)C2` (stereo partly drawn) [Compound 486, 2-(bicyclo[3.2.0]heptan-6-ylamino)-N—((S)-2-hydroxy-3-(5-methyl-6-(oxazol-5-ylmethoxy)-3,4-dihydroisoquinolin-2(1H)-yl)propyl)isonicotinamide], the IC50 in assay [1] was at least 5 µM; in assay [2], 0.05 to 0.5 µM; in assay [3] it was 0.05 to 0.5 µM; in assay [4] it was 1 to 10 µM; in assay [5], at least 10 µM. In addition, the “SAM/MTA Ratio” value in assay [3] (setting [6]) is “A (a Ki ratio greater than or equal to 10 fold between the Ki in the presence of SAM and the Ki in the presence of MTA)”. Moreover, the “MTAP Intact/Deleted Ratio” value in assay [4] was “C* (an IC50 ratio of less than 3 fold between the IC50 in the HAP1 MTAP-intact cell line and the HAP1 MTAP-deleted cell line)”.
For the compound `Cc1ncoc1COc1ccc2c(c1)CCN(C[C@@H](O)CNC(=O)c1cc(NC3COC3)nc(N3CCN(C(=O)C(C)C)CC3)n1)C2` [Compound 454, N-[(2S)-2-hydroxy-3-{6-[(4-methyl-1,3-oxazol-5-yl)methoxy]-1,2,3,4-tetrahydroisoquinolin-2-yl}propyl]-2-[4-(2-methylpropanoyl)piperazin-1-yl]-6-[(oxetan-3-yl)amino]pyrimidine-4-carboxamide], the IC50 in assay [1] was 0.5 to 5 µM; in assay [2], 0.05 to 0.5 µM; in assay [3], 0.05 to 0.5 µM; in assay [4], below 1 µM; in assay [5], 1 to 10 µM. Moreover, the “SAM/MTA Ratio” value in assay [3] (setting [6]) is “A (a Ki ratio greater than or equal to 10 fold between the Ki in the presence of SAM and the Ki in the presence of MTA)”. Besides, in assay [4], the “MTAP Intact/Deleted Ratio” value was “B* (an IC50 ratio greater than or equal to 3 fold but lower than 10 fold between the IC50 in the HAP1 MTAP-intact cell line and the HAP1 MTAP-deleted cell line)”.
For `O=C(NC[C@H](O)CN1CCc2c(ccc(OCc3cnco3)c2Cl)C1)c1cncc(NC2CCOC2)c1` (stereo partly drawn) [Compound 359, N—((S)-3-(5-chloro-6-(oxazol-5-ylmethoxy)-3N-dihydroisoquinolin-2(1H)-yl)-2-hydroxypropyl)-5-((tetrahydrofuran-3-yl)amino)nicotinamide], the IC50 in assay [1] (read-out: No Co-factor IC50) is at least 5 µM; in assay [2] it was 0.5 to 5 µM; in assay [3] it was 0.5 to 5 µM; in assay [4] it was 1 to 10 µM; in assay [5] it was at least 10 µM. The “SAM/MTA Ratio” value in assay [3] (setting [7]) is “A (a Ki ratio greater than or equal to 10 fold between the Ki in the presence of SAM and the Ki in the presence of MTA)”. The “MTAP Intact/Deleted Ratio” value in assay [4] was “C* (an IC50 ratio of less than 3 fold between the IC50 in the HAP1 MTAP-intact cell line and the HAP1 MTAP-deleted cell line)”.
Consider `O=C(NC[C@H](O)CN1CCc2c(ccc(OCc3cnco3)c2Cl)C1)c1ccnc(NC2CC3(C2)CC3(F)F)c1` (some centres unmarked) [Compound 441], for which the IC50 in assay [1] is 0.5 to 5 µM; in assay [2], 0.05 to 0.5 µM; in assay [3], 0.05 to 0.5 µM; in assay [4], 1 to 10 µM; in assay [5] it was at least 10 µM. Moreover, in assay [3] (setting [6]), the “SAM/MTA Ratio” value is “A (a Ki ratio greater than or equal to 10 fold between the Ki in the presence of SAM and the Ki in the presence of MTA)”. In addition, the “MTAP Intact/Deleted Ratio” value in assay [4] was “C* (an IC50 ratio of less than 3 fold between the IC50 in the HAP1 MTAP-intact cell line and the HAP1 MTAP-deleted cell line)”.
With `CC(C)Cc1cc(C(=O)NC[C@H](O)CN2CCc3cc(OCc4cnco4)ccc3C2)cc(NC2CCC2)n1` [Compound 307, (S)-2-(cyclobutylamino)-N-(2-hydroxy-3-(6-(oxazol-5-ylmethoxy)-3,4-dihydroisoquinolin-2(1H)-yl)propyl)-6-isobutylisonicotinamide], the IC50 is at least 5 µM in assay [1] (read-out: No Co-factor IC50); 0.5 to 5 µM in assay [2]; 0.05 to 0.5 µM in assay [3]; below 1 µM in assay [4]; 1 to 10 µM in assay [5]. Further, the “SAM/MTA Ratio” value in assay [3] (setting [7]) is “A (a Ki ratio greater than or equal to 10 fold between the Ki in the presence of SAM and the Ki in the presence of MTA)”. Also, the “MTAP Intact/Deleted Ratio” value in assay [4] is “C* (an IC50 ratio of less than 3 fold between the IC50 in the HAP1 MTAP-intact cell line and the HAP1 MTAP-deleted cell line)”.
Regarding `CCC(=O)N1CCN(c2cc(C(=O)NC[C@H](O)CN3CCc4cc(OCc5ocnc5C)ccc4C3)cc(NC3CCC3)n2)CC1` [Compound 389, 2-(cyclobutylamino)-N-[(2S)-2-hydroxy-3-{6-[(4-methyl-1,3-oxazol-5-yl)methoxy]-1,2,3,4-tetrahydroisoquinolin-2-yl}propyl]-6-(4-propanoylpiperazin-1-yl)pyridine-4-carboxamide], the IC50 was 0.5 to 5 µM in assay [1] (read-out: No Co-factor IC50); 0.05 to 0.5 µM in assay [2]; 0.05 to 0.5 µM in assay [3]; below 1 µM in assay [4]; below 1 µM in assay [5]. Moreover, the “SAM/MTA Ratio” value in assay [3] (setting [7]) was “A (a Ki ratio greater than or equal to 10 fold between the Ki in the presence of SAM and the Ki in the presence of MTA)”. Also, the “MTAP Intact/Deleted Ratio” value in assay [4] is “B* (an IC50 ratio greater than or equal to 3 fold but lower than 10 fold between the IC50 in the HAP1 MTAP-intact cell line and the HAP1 MTAP-deleted cell line)”.
For the compound `Cc1ncoc1COc1ccc2c(c1C)CCN(C[C@@H](O)CNC(=O)c1cc(NC3COC3)nc(N3CCN(C(C)(C)C)CC3)n1)C2` [Compound 435, 2-(4-tert-butylpiperazin-1-yl)-N-[(2S)-2-hydroxy-3-{5-methyl-6-[(4-methyl-1,3-oxazol-5-yl)methoxy]-1,2,3,4-tetrahydroisoquinolin-2-yl}propyl]-6-[(oxetan-3-yl)amino]pyrimidine-4-carboxamide], the IC50 was at least 5 µM in assay [1]; 0.05 to 0.5 µM in assay [2]; 0.05 to 0.5 µM in assay [3]; at least 10 µM in assay [4]; at least 10 µM in assay [5]. In addition, in assay [3] (setting [6]), the “SAM/MTA Ratio” value was “A (a Ki ratio greater than or equal to 10 fold between the Ki in the presence of SAM and the Ki in the presence of MTA)”. Further, the “MTAP Intact/Deleted Ratio” value in assay [4] was “C* (an IC50 ratio of less than 3 fold between the IC50 in the HAP1 MTAP-intact cell line and the HAP1 MTAP-deleted cell line)”.
For the compound `CC(=O)N1CC(Nc2cc(C(=O)NC[C@H](O)CN3CCc4cc(OCc5cnco5)ccc4C3)nc(N3CCCCC3)n2)C1` [Compound 365, (S)-6-((1-acetylazetidin-3-yl)amino)-N-(2-hydroxy-3-(6-(oxazol-5-ylmethoxy)-3A-dihydroisoquinolin-2(1H)-yl)propyl)-2-(piperidin-1-yl)pyrimidine-4-carboxamide], the IC50 in assay [1] (read-out: No Co-factor IC50) is 0.5 to 5 µM; in assay [2] it was 0.05 to 0.5 µM; in assay [3], below 0.05 µM; in assay [4], below 1 µM; in assay [5], 1 to 10 µM. In addition, the “SAM/MTA Ratio” value in assay [3] (setting [7]) was “A (a Ki ratio greater than or equal to 10 fold between the Ki in the presence of SAM and the Ki in the presence of MTA)”. In addition, the “MTAP Intact/Deleted Ratio” value in assay [4] was “B* (an IC50 ratio greater than or equal to 3 fold but lower than 10 fold between the IC50 in the HAP1 MTAP-intact cell line and the HAP1 MTAP-deleted cell line)”.
